According to patent publication EP3064205A1, “Therapeutic use of isomeric forms of 2-(4-chlorophenyl)quinolin-4-yl)(piperidin-2-yl)methanol” (Glionova AB, priority 2015, dated 2016):
Read-outs that look alike come from different tables or passages of the source.

Experiments:
Test in all cases: 3D clonogenic assay (PDX)
Assay type in all cases: cell-based, human
BXF 1218 = details: BXF 1218, Bladder; for IC50: Homo sapiens
Outline: (§1)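 Ex vivo clonogenic growth of patient-derived xenograft cells in a three-layer soft-agar system, IMDM with 20% FCS. Continuous exposure at ten half-log concentrations from 50 µM, in duplicate. Colonies were counted at maximal formation after 8–13 days.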

LXFA 1041 = details: LXFA 1041, Lung Adeno; for IC50: Homo sapiens
Outline: as §1

LXFA 1584 = details: LXFA 1584, Lung Adeno; for IC50: Homo sapiens
Outline: as §1

LXFA 1647 = details: LXFA 1647, Lung Adeno; for IC50: Homo sapiens
Outline: as §1

LXFL 1121 = details: LXFL 1121, Lung Large Cell; for IC50: Homo sapiens
Outline: as §1

MEXF 1765 = details: MEXF 1765, Melanoma; for IC50: Homo sapiens
Outline: as §1

OVXF 1544 = details: OVXF 1544, Ovarian; for IC50: Homo sapiens
Outline: as §1

PAXF 1900 = details: PAXF 1900, Pancreas; for IC50: Homo sapiens
Outline: as §1

PAXF 2005 = details: PAXF 2005, Pancreas; for IC50: Homo sapiens
Outline: as §1

RXF 486 = details: RXF 486, Renal; for IC50: Homo sapiens
Outline: as §1

RXF 631 = details: RXF 631, Renal; for IC50: Homo sapiens
Outline: as §1

SXFS 117 = details: SXFS 117, Sarcoma Soft Tissue; for IC50: Homo sapiens
Outline: as §1

O[C@H](c1cc(-c2ccc(Cl)cc2)nc2ccccc12)[C@@H]1CCCCN1 [S1, (R)-(2-(4-chlorophenyl)quinolin-4-yl)((S)-piperidin-2-yl)methanol] was tested, and the “b (bottom plateau of concentration-effect curve)” value (BXF 1218) was 15, the “t (top plateau of concentration-effect curve)” value (BXF 1218) was 100 and the IC50 (BXF 1218; read-out: abs. IC50) was 6.16 µM. It also gave an IC50 (BXF 1218; read-out: rel. IC50) of 6.02 µM, an IC50 (LXFA 1041; read-out: abs. IC50) of 5.3 µM and an IC50 (LXFA 1041; read-out: rel. IC50) of 5.25 µM. The “b (bottom plateau of concentration-effect curve)” value (LXFA 1041) was 10, the “t (top plateau of concentration-effect curve)” value (LXFA 1041) was 95 and the IC50 (LXFA 1584; read-out: abs. IC50) was 7.81 µM. For the same compound, the IC50 (LXFA 1584; read-out: rel. IC50) was 6.79 µM, the “b (bottom plateau of concentration-effect curve)” value (LXFA 1584) was 31 and the “t (top plateau of concentration-effect curve)” value (LXFA 1584) was 95. For the same compound, the IC50 (LXFA 1647; read-out: abs. IC50) was 12.1 µM, the IC50 (LXFA 1647; read-out: rel. IC50) was 11.9 µM and the “b (bottom plateau of concentration-effect curve)” value (LXFA 1647) was 13. For the same compound, the “t (top plateau of concentration-effect curve)” value (LXFA 1647) was 98, the IC50 (LXFL 1121; read-out: abs. IC50) was 8.66 µM and the IC50 (LXFL 1121; read-out: rel. IC50) was 8.61 µM. The “b (bottom plateau of concentration-effect curve)” value (LXFL 1121) was 9, the “t (top plateau of concentration-effect curve)” value (LXFL 1121) was 101 and the IC50 (MEXF 1765; read-out: abs. IC50) was 8.58 µM. For the same compound, the IC50 (MEXF 1765; read-out: rel. IC50) was 8.53 µM, the “b (bottom plateau of concentration-effect curve)” value (MEXF 1765) was 23 and the “t (top plateau of concentration-effect curve)” value (MEXF 1765) was 84. The IC50 (OVXF 1544; read-out: abs. IC50) was 13.5 µM, the IC50 (OVXF 1544; read-out: rel. IC50) was 12.8 µM and the “b (bottom plateau of concentration-effect curve)” value (OVXF 1544) was 22. For the same compound, the “t (top plateau of concentration-effect curve)” value (OVXF 1544) was 107, the IC50 (PAXF 1900; read-out: abs. IC50) was 13.2 µM and the IC50 (PAXF 1900; read-out: rel. IC50) was 12.2 µM. The “b (bottom plateau of concentration-effect curve)” value (PAXF 1900) was 33, the “t (top plateau of concentration-effect curve)” value (PAXF 1900) was 114 and the IC50 (PAXF 2005; read-out: abs. IC50) was 9.16 µM. The IC50 (PAXF 2005; read-out: rel. IC50) was 9.06 µM, the “b (bottom plateau of concentration-effect curve)” value (PAXF 2005) was 11 and the “t (top plateau of concentration-effect curve)” value (PAXF 2005) was 106. The IC50 (RXF 486; read-out: abs. IC50) was 12.8 µM, the IC50 (RXF 486; read-out: rel. IC50) was 12.7 µM and the “b (bottom plateau of concentration-effect curve)” value (RXF 486) was 5. The “t (top plateau of concentration-effect curve)” value (RXF 486) was 97, the IC50 (RXF 631; read-out: abs. IC50) was 24.6 µM and the IC50 (RXF 631; read-out: rel. IC50) was 28.1 µM. The “b (bottom plateau of concentration-effect curve)” value (RXF 631) was 0, the “t (top plateau of concentration-effect curve)” value (RXF 631) was 91 and the IC50 (SXFS 117; read-out: abs. IC50) was 8.55 µM. The IC50 (SXFS 117; read-out: rel. IC50) was 8.58 µM, the “b (bottom plateau of concentration-effect curve)” value (SXFS 117) was 4 and the “t (top plateau of concentration-effect curve)” value (SXFS 117) was 91.
